In the Kinase Knowledgebase extract (Sharma et al. 2016):

What follows are compounds tested against EGFR (UniProt P00533) (assay: Inhibition of EGFR Kinase Activity).
Sequence of EGFR (P00533 whole entry, looked up): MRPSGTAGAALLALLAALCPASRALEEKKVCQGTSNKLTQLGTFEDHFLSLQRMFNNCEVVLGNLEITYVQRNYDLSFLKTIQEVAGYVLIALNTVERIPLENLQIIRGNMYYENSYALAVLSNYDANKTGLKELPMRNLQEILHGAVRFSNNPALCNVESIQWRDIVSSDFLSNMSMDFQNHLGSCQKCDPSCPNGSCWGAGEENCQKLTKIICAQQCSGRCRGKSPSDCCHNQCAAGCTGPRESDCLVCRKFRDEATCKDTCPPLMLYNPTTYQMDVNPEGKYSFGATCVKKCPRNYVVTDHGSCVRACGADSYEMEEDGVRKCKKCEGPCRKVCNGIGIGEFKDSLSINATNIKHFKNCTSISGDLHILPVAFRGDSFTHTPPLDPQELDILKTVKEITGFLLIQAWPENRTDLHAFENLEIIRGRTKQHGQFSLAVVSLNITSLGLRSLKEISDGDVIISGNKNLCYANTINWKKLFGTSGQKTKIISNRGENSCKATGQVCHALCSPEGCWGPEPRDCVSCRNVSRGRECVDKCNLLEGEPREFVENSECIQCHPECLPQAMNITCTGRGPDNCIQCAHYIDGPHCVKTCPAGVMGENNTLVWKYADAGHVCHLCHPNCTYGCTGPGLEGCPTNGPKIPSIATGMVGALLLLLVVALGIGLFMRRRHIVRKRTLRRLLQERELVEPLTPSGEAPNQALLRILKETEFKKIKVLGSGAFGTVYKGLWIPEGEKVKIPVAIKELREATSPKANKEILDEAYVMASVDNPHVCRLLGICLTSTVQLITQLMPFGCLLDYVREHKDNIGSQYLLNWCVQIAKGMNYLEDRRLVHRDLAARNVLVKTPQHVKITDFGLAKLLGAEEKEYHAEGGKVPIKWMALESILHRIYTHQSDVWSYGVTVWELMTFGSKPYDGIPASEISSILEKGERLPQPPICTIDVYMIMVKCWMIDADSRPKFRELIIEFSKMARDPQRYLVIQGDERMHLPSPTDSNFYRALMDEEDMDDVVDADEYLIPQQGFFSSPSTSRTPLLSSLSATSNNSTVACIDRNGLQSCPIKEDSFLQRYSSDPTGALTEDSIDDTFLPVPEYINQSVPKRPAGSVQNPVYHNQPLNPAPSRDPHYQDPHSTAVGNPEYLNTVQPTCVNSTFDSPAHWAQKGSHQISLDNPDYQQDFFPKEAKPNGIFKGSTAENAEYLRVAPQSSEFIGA

Compound	IC50
CC#CC(=O)Nc1cccc(Nc2ncnc(N(CC)n3c(=O)[nH]c4ccccc43)n2)c1	< 50 µM
C=CC(=O)Nc1ccc(Nc2ncnc(N(C)c3cc(OC)c(OC)c(OCCN4CCOCC4)c3)n2)cc1	< 50 µM
C=CC(=O)Nc1ccc(Nc2ncnc(NN3CCCc4cc(OC)ccc43)n2)cc1	< 50 µM
C=CC(=O)Nc1ccc(Nc2ncnc(N(C)c3ccc4c(ccn4Cc4ccccc4)c3)n2)cc1	< 50 µM
C=CC(=O)Nc1ccc(Nc2ncnc(N(CC)n3c(=O)n(C(=O)C(C)(C)C)c4ccccc43)n2)cc1	< 50 µM
CC#CC(=O)Nc1cccc(Nc2ncnc(N(CC)c3ccc(OCc4ccccc4)cc3)n2)c1	< 50 µM
C=CC(=O)Nc1cc(Nc2ncnc(Nc3ccc4c(cnn4Cc4ccccc4)c3)n2)ccc1OC	< 50 µM
C=CC(=O)Nc1ccc(Nc2ncnc(Nc3ccc(OC)cc3)n2)cc1	< 50 µM
CC#CC(=O)Nc1cccc(Nc2ncnc(Nc3cc(OC)c(OC)c(OCCN4CCOCC4)c3)n2)c1	< 50 µM
CC#CC(=O)Nc1cc(Nc2ncnc(Nc3cccc(Cl)c3)n2)ccc1OCCCC1CCN(C)CC1	< 50 µM
CC#CC(=O)Nc1cccc(Nc2ncnc(N(C)c3cc(OC)c(OC)c(OCCN4CCOCC4)c3)n2)c1	< 50 µM
C=CC(=O)Nc1cc(Nc2ncnc(NN3CCCc4ccc(Cl)cc43)n2)ccc1OCCCC1CCN(C)CC1	< 50 µM
C=CC(=O)Nc1cc(Nc2ncnc(N(C)c3ccc4c(cnn4Cc4ccccc4)c3)n2)ccc1OCCCN1CCOCC1	< 50 µM
CC#CC(=O)Nc1cccc(Nc2ncnc(N(C)C3CC3c3ccccc3)n2)c1 (configuration not stated)	< 50 µM
CC#CC(=O)Nc1cccc(Nc2ncnc(Nc3ccc(OCc4ccccc4)cc3)n2)c1	< 50 µM
C=CC(=O)Nc1ccc(Nc2ncnc(Nc3cccc(C(N)=O)c3)n2)cc1	< 50 µM
CC#CC(=O)Nc1cccc(Nc2ncnc(N(C)n3c(=O)[nH]c4ccccc43)n2)c1	< 50 µM
C=CC(=O)Nc1ccc(Nc2ncnc(N(CC)c3cc(Cl)cc4ccccc34)n2)cc1	< 50 µM
CC#CC(=O)Nc1cccc(Nc2ncnc(N(C)c3cc(Cl)ccc3C)n2)c1	< 50 µM

More lines, now with the values ahead:

IC50	Compound
< 50 µM	C=CCN(c1ccc(C(=O)OC)cc1)c1ncnc(Nc2ccc(NC(=O)C=C)cc2)n1
< 50 µM	C=CCN(c1ncnc(Nc2cccc(NC(=O)C=C)c2)n1)c1cc(Cl)ccc1C
< 50 µM	CC#CC(=O)Nc1cccc(Nc2ncnc(N(C)c3ccc(OCC)c(OCC)c3)n2)c1
< 50 µM	C=CC(=O)Nc1ccc(Nc2ncnc(N(CC)c3cccc4ccccc34)n2)cc1
< 50 µM	CC#CC(=O)Nc1cccc(Nc2ncnc(N(CC)c3cccc(Cl)c3)n2)c1
< 50 µM	C=CC(=O)Nc1ccc(Nc2ncnc(N(CC)c3cccc(C)c3)n2)cc1
< 50 µM	C=CC(=O)Nc1cccc(Nc2ncnc(N(C)c3ccc(OCC)c(OCC)c3)n2)c1
< 50 µM	C=CCN(c1cccc(S(=O)(=O)c2ccc([N+](=O)[O-])cc2)c1)c1ncnc(Nc2cccc(NC(=O)C=C)c2)n1
< 50 µM	C=CC(=O)Nc1ccc(Nc2ncnc(N(C)c3ccc(OC)c(OCCOC)c3)n2)cc1
< 50 µM	C=CC(=O)Nc1cccc(Nc2ncnc(N(C)c3ccc(OC)c(OCCOC)c3)n2)c1
< 50 µM	CC#CC(=O)Nc1cccc(Nc2ncnc(N(C)c3cccc(C(N)=O)c3)n2)c1
< 50 µM	C=CC(=O)Nc1cccc(Nc2ncnc(N(C)n3c(=O)n(C(=O)C(C)(C)C)c4ccccc43)n2)c1
< 50 µM	C=CC(=O)Nc1cccc(Nc2ncnc(N(C)n3c(=O)[nH]c4ccccc43)n2)c1
< 50 µM	C=CCN(c1ccc(OCC)c(OCC)c1)c1ncnc(Nc2cccc(NC(=O)C=C)c2)n1
< 50 µM	CC#CC(=O)Nc1cccc(Nc2ncnc(N(CC)c3ccc(OCCC)c(OCCC)c3)n2)c1
< 50 µM	C=CC(=O)Nc1ccc(Nc2ncnc(N(CC)c3ccc(C(=O)OC)cc3)n2)cc1
< 50 µM	C=CC(=O)Nc1cccc(Nc2ncnc(N(C)c3cccc(S(=O)(=O)c4ccc([N+](=O)[O-])cc4)c3)n2)c1
< 50 µM	C=CC(=O)Nc1cccc(Nc2ncnc(N(C)c3ccc4c(ccn4Cc4ccccc4)c3)n2)c1
